This passage reports IC50 results from publication PMC2213532 (The Journal of Experimental Medicine, 2000).

For experiment [1], the target named is soluble H-2D^b (Mus musculus, UniProt P01899). The experiment is described as follows: biochemical. Format: binding.
For experiment [2], the target named is soluble H-2D^b. The experiment is described as follows: radioligand binding.

Residues, ends and D or L forms follow the SMILES beside them.

soluble H-2D^b (Mus musculus, UniProt P01899), sequence (P01899 25-362): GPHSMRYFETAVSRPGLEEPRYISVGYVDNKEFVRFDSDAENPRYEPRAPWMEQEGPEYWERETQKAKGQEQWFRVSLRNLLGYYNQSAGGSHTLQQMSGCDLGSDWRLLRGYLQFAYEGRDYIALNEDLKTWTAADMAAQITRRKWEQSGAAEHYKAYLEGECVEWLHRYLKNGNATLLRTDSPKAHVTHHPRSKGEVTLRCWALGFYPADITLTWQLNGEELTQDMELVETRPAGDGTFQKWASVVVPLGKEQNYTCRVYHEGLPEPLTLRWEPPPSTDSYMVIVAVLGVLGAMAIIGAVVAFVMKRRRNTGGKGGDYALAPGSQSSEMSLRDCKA
soluble H-2D^b (Mus musculus, UniProt P01899), sequence (P01887 21-119, further chain): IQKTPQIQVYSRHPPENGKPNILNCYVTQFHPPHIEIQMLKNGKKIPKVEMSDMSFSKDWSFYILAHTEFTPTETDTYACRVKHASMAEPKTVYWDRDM

On soluble H-2D^b [1], `CSCC[C@H](NC(=O)[C@@H](NC(=O)[C@H](CC(=O)O)NC(=O)[C@H](CCSC)NC(=O)[C@H](CC(N)=O)NC(=O)[C@H](CCC(=O)O)NC(=O)[C@H](CC(N)=O)NC(=O)[C@H](CO)NC(=O)[C@H](C)N)[C@@H](C)O)C(=O)O` [NP366-374] (H-ASNENMDTM-OH) returned an IC50 of 6 nM. Take “NP_(366-374) peptide of A/Memphis/102/72”: the IC50 with soluble H-2D^b [2] was determined as 6 nM.

One may read the IC50 as the midpoint of a concentration-inhibition curve. Low values mean greater potency, high ones weaker potency.
